The NIST ThermoML archive (doi:10.1016/j.jct.2015.08.024)
± gives the expanded uncertainty stated by the source.

Conditions: Liquid, Closed cell (Static) method

| vapor or sublimation pressure (323.15 K) [kPa] | vapor or sublimation pressure (333.15 K) [kPa] | vapor or sublimation pressure (343.15 K) [kPa] | vapor or sublimation pressure (353.15 K) [kPa] | Compound |
| --- | --- | --- | --- | --- |
| 344.4 ± 1.6 | 463.2 ± 1.9 | 609.8 ± 2.4 | 789.8 ± 2.9 | FC(F)CC(F)(F)F [1,1,1,3,3-pentafluoropropane] |
| 1177.3 ± 3.7 | 1500.6 ± 4.7 | 1886.8 ± 5.9 | 2342.7 ± 7.3 | CC(F)F [1,1-difluoroethane] |
